Experimental data published in ChEMBL document CHEMBL3507680, “University of Dundee, Gates Library screen for HepG2 cell viability”.

Test: Human HepG2 cell viability assay in 384 well format
Assay type: toxicity, cell-based
Parameters: dose 125 nL, time 70.5 hour; cytotoxicity at 70.5 h: concentration not given beside the values
Conditions: HepG2 cells, read-out: Inhibition

SMILES	cytotoxicity at 70.5 h [%]
c1ccc(N2CCC(c3ccncc3)CC2)cc1	5.91
CC(C)c1nnc2n1CCN(CCC(=O)Nc1sccc1C#N)C2	-1.15
CN(Cc1ccccc1Br)C(=O)Cn1nc(-c2ccc(F)cc2)oc1=O	-8.06
Cc1ccc2c(c1)c(C)cc(=O)n2CCCN	-4.61
CN(CC1(O)CCCN(c2ccccn2)C1)C(=O)CCc1cccs1 (stereo unspecified)	-7.41
O=C(c1ccc(NCc2cccc(F)c2)cc1)N1CCCC1	1.69
O=C(COc1ccc(Cl)cc1)Nc1cnc(N2CCOCC2)nc1	1.79
CN(Cc1nnc(C2CC2)n1C)C1CCN(CCS(C)(=O)=O)C1 (stereo unspecified)	-6.94
CCc1nc(C2CCCN(C(=O)c3ccccc3F)C2)no1 (stereo unspecified)	-2.67
CNS(=O)(=O)c1cccc(C(C)NCc2cccc(C)c2C)c1 (stereo unspecified)	-12.2
Cc1noc(C2CCCN(C(=O)c3cc(Cl)ccc3F)C2)n1 (stereo unspecified)	-7.27
Cc1ccc(N(C)C2CCN(C(=O)CCc3ccco3)CC2)nn1	-11.8
COc1ccc(C(C)NC(=O)Nc2nccs2)cc1OC (stereo unspecified)	-8.99
Cc1cnn(CCNCc2cccc(C#N)c2)c1	4.17
CCN1CC2(CC1=O)CN(C(=O)c1ccco1)CCN(C(=O)N(C)C)C2 (stereo unspecified)	-5.37
O=C1NCCC12CN(CC1CC1)CC21CCNCC1 (stereo unspecified)	-6.52
COc1ccc(CN2CCOC3(CCCN(c4cnccn4)C3)C2)cc1 (stereo unspecified)	-4.22
CCCc1cc(CNC(=O)C2CCOc3ccccc3C2)on1 (stereo unspecified)	2.98
O=C(c1ccc(SC(F)F)cc1)N1CCOCC1c1ncon1 (stereo unspecified)	-3.71
Cc1ccc(C(=O)O)cc1S(=O)(=O)N(C)c1cccc(C#N)c1	-7.91
COc1ccccc1C1SCC(=O)Nc2c1c(=O)[nH]n2C1CCOCC1 (stereo unspecified)	-24.1
Cc1cc(C)cc(CN2CCN(Cc3cccc(CCN)c3)CC2=O)c1	-10.8
COC(=O)CCN1CCCC1c1ccccc1Cl (stereo unspecified)	-6.47

SMILES	cytotoxicity at 70.5 h [%]
CCn1cc(CN2CCCN(C(=O)c3cc(C)no3)CC2)cn1	-2.69
COc1cc(C)c(CN2CCc3nc4ccsc4c(=O)n3CC2)cc1C	0.311
COc1ccc(C2=CCN(C(=O)C3CCCN(C(N)=O)C3)CC2)cc1 (stereo unspecified)	-6.51
Cc1nc(C)n(C2CCCN(C(=O)Cc3ccc4c(c3)CCC4)C2)n1 (stereo unspecified)	-3.72
CC(C)c1ccc(OCC(=O)NS(=O)(=O)c2cccnc2)cc1	-0.457
Cn1cc(CN(Cc2ccccn2)Cc2ccccc2Cl)cn1	-1.3
O=C(c1cc(=O)[nH]c(=O)[nH]1)N1CCCCC1c1ccc(F)cc1 (stereo unspecified)	-6.94
O=C(c1cn(CC(=O)N2CCc3[nH]cnc3C2)c2ccccc12)C1CC1	-5.73
Cc1cc(C)c2nc(C)cc(C(=O)NCc3csc(N(C)C)n3)c2c1	27.3
Cc1cnc(NC(=O)c2cccc(CN(C)Cc3snnc3C)c2)s1	-4.01
O=c1ccc(-c2cccs2)nn1CN1CCOCC1	-16.7
CN(Cc1cccnc1)CC1CCOc2ccccc2C1 (stereo unspecified)	-5.68
CC(=O)N1CCN(C(=O)CN2CCCC2Cn2nc(C)cc2C)CC1 (stereo unspecified)	11.5
CC(C)CCN1Cc2c(C(=O)N3CCCC3)nn(C)c2C1	15
CCN(C)c1ncnc2c1CCN(Cc1ccsc1)CC2	0.529
COc1ccccc1OCc1cc(C(=O)N2CCN[C@H](C)C2)n[nH]1	-5.99
CCC(C)Oc1ccc(CNCCNC(C)=O)cc1Cl (stereo unspecified)	-3.38
NC(=O)C1CCN(CCc2ccc(NCc3ccsc3)cc2)CC1	-11.9
O=C1OCCC1N1CCN(C(=O)Cc2c[nH]c3ccccc23)CC1 (stereo unspecified)	7.81
Cc1cc(=O)n2ncnc2n1CC(O)c1ccccc1F (stereo unspecified)	-10.7
Cc1ccc(O[C@@H]2C[C@H]3CN(c4ncc(F)cn4)CCN3C2)cc1	-0.913
CC(CN1CCOCC1)OC(=O)c1cccc2cn[nH]c12 (stereo unspecified)	12
Cc1cn(-c2ccccc2)nc1NS(=O)(=O)c1cc(C(=O)O)sc1C	-18.9
